Test results taken from patent US8710076B2, “2,5-disubstituted piperidine orexin receptor antagonists” (Merck Sharp & Dohme Corp., priority 2008, dated 2014).

Target: orexin-2 receptor (OX2R) (Homo sapiens (Human), UniProt O43614)
Assay: radioligand binding assay, membranes from CHO cells expressing OX2
Conditions: membranes prepared from CHO cells expressing OX2
Description: The utility of the compounds in accordance with the present invention as orexin receptor OX1R and/or OX2R antagonists may be readily determined without undue experimentation by methodology well known in the art, including the “FLIPR Ca^2+Flux Assay” (Okumura et al., Biochem. Biophys. Res. Comm. 280:976-981, 2001). In a typical experiment the OX1 and OX2 receptor antagonistic activity of the compounds of the present invention was determined in accordance with the following experimental method. For intracellular calcium measurements, Chinese hamster ovary (CHO) cells expressing the rat OX1 receptor or the human OX2 receptor, are grown in Iscove's modified DMEM containing 2 mM L-glutamine, […], 1% hypoxanthine-thymidine supplement, 100 U/ml penicillin, 100 ug/ml streptomycin and 10% heat-inactivated fetal calf serum (FCS). The cells are seeded at 20,000 cells/well into Becton-Dickinson black 384-well clear bottom sterile plates coated with poly-D-lysine. All reagents were from GIBCO-Invitrogen Corp. The seeded plates are incubated overnight at 37° C. and 5% CO2. Ala-6,12 human orexin-A as the agonist is prepared as a 1 mM stock solution in 1% bovine serum albumin (BSA) and diluted in assay buffer (HBSS containing 20 mM HEPES, 0.1% BSA and 2.5 mM probenecid, pH7.4) for use in the assay at a final concentration of 70 pM. Test compounds are prepared as 10 mM stock solution in DMSO, then diluted in 384-well plates, first in DMSO, then assay buffer. On the day of the assay, cells are washed 3 times with 100 ul assay buffer and then incubated for […] (37° C., 5% CO2) in 60 ul assay buffer containing 1 uM Fluo-4AM ester, 0.02% pluronic acid, and 1% BSA. The dye loading solution is then aspirated and cells are washed 3 times with 100 ul assay buffer. 30 ul of that same buffer is left in each well. Within the Fluorescent Imaging Plate Reader (FLIPR, Molecular Devices), test compounds are added to the plate in a volume of 25 ul, incubated for 5 min and finally 25 ul of agonist is added. Fluorescence is measured for each well at 1 second intervals for 5 minutes and the height of each fluorescence peak is compared to the height of the fluorescence peak induced by 70 pM Ala-6,12 orexin-A with buffer in place of antagonist. […] Alternatively, compound potency can be assessed by a radioligand binding assay (described in Bergman et. al. Bioorg. Med. Chem. Lett. 2008, 18, 1425-1430) in which the inhibition constant (Ki) is determined in membranes prepared from CHO cells expressing either the orexin-1 (OX1) or orexin-2 (OX2) receptor. The intrinsic orexin receptor antagonist activity of a compound which may be used in the present invention may be determined by these assays.

Sequence of orexin-2 receptor (OX2R) (O43614 whole entry): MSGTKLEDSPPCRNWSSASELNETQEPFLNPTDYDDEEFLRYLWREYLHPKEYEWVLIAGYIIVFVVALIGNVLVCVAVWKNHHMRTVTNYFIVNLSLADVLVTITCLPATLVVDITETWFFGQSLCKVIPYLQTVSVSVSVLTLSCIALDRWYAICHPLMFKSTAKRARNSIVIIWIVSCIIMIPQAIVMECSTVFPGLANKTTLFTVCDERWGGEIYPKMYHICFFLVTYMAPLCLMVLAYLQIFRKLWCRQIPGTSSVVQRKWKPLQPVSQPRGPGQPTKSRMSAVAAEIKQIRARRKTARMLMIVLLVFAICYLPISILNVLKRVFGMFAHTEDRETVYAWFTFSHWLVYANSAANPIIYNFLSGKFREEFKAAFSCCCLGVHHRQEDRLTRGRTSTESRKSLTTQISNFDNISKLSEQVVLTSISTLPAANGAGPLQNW

Row | Ki [nM] | SMILES
1 | 18.3 | C[C@@H]1CC[C@@H](Oc2cccc3ocnc23)CN1C(=O)c1ccccc1-n1nccn1 (mixture of isomers) [1-1, (2R,5R)- and (2S,5S)-4-({6-methyl-1-[2-(2H-1,2,3-triazol-2-yl)benzoyl]piperidin-3-yl}oxy)-l,3-benzoxazole]
2 | 0.55 | C[C@@H]1CC[C@@H](Oc2ccnc3c(F)cccc23)CN1C(=O)c1ccccc1-n1nccn1 [E-2]
3 | 0.11 | C[C@@H]1CC[C@@H](Oc2nccc3ccccc23)CN1C(=O)c1ccccc1-n1nccn1 [F-2, 1-({(2R,5R)-6-methyl-1-[2-(2H-1,2,3-triazol-2-yl)benzoyl]piperidin-3-yl}oxy)-isoquinoline]
4 | 0.56 | Cc1ccc(-n2nccn2)c(C(=O)N2C[C@H](Nc3nccc4ccccc34)CC[C@H]2C)c1 [H-4, N-{(2R,5R)-6-methyl-1-[5-methyl-2-(2H-1,2,3-triazol-2-yl)benzoyl]piperidin-3-yl}isoquinolin-1-amine]
